Results from paper PMC3844262 (Journal of immunology (Baltimore, Md. : 1950), 2013).

Assays:
[1] = tested on: CD8+ T cells from acute day 8 LCMV-infected mice; assay type: cell-based, C57BL/6 (B6) mice
[2] = tested on: GP34-A11R cross-reactive T cell lines (TCL #1, #3, #7); assay type: cell-based, C57BL/6 (B6) mice
H-2K^b = H-2K^b (Mus musculus, UniProt P01901); assay type: binding, murine
Chain of H-2K^b (P01901 whole entry, looked up): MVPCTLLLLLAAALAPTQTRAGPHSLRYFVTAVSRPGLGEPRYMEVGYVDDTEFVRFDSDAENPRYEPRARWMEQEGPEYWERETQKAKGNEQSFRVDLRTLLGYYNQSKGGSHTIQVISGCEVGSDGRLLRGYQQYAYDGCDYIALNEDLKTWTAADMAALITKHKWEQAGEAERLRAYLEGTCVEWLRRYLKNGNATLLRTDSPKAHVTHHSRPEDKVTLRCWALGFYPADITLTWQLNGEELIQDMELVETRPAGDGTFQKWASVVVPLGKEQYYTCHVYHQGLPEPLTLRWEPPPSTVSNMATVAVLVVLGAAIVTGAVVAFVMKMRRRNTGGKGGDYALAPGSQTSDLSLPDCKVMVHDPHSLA

SIINFAAL [OVA-AA]
IFNγ production ex vivo, acute LCMV-infected mice (OVA hybrid experiment) [1]: not observed
CD8+ T cells responding (IFNγ), TCL #7 [2]: not cross-reactive

SIINFEKL [OVA]
CD8+ T cells responding (IFNγ), TCL #7 [2]: does not cross-react
Tm of K^b-peptide complex (H-2K^b): 51.5 °C

SIYRYYGL
IFNγ response, % of total CD8+ T cells [1]: not observed
